Drawing on patent US9783488B2 (CHDI Foundation, Inc., priority 2013, dated 2017), this text covers IC50 for 37 compounds.

Broadly, the IC50 is the concentration that gives 50% inhibition.

Experiment [1] relates to cellular histone deacetylase enzymatic activity in Jurkat E6-1 cells. Description: Inhibition of cellular HDAC activity in Jurkat E6-1 cells, fluorogenic substrate Boc-Lys(Tfa)-AMC. The experiment is classed as cell-based. The conditions noted are these: Homo sapiens, read-out: Cell IC50. A digest of the protocol:
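Jurkat E6.1 cells (75,000/well) were pre-treated with compound for 2 h at 37 °C, then given Boc-Lys(Tfa)-AMC (5× stock 500 μM) for 3 h. Cells were lysed with trypsin-containing buffer overnight, and released AMC fluorescence was read at Ex 355/Em 460 nm over a 16-point dilution series.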

Experiment [2] concerns the target human catalytic domain HDAC4 protein (amino acids 648-1032) (Homo sapiens (Human), UniProt P56524). Description: Inhibition of HDAC4 catalytic domain enzymatic activity, fluorogenic substrate Boc-Lys(Tfa)-AMC. The conditions noted are these: HDAC4 catalytic domain enzyme, read-out: Biochemical HDAC4 IC50.

Chain of human catalytic domain HDAC4 protein (amino acids 648-1032) (P56524 648-1032): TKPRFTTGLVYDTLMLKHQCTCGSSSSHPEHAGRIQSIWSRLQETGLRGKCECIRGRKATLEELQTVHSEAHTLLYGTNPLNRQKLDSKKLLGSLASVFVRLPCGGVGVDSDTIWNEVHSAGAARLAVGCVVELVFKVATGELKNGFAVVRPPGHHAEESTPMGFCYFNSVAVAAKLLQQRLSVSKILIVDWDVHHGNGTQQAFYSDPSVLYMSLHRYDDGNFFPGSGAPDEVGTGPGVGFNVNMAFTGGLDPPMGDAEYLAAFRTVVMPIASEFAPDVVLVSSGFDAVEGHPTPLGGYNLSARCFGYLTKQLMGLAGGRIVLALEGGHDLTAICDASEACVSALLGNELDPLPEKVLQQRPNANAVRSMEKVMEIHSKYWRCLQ

Turning to `Cc1c(F)cccc1[C@]1(C(=O)NO)CC[C@H](c2ccc3nc(C4CC4)sc3c2)C1` (relative stereo) [Example 77, (1 S,3S*)-3-(2-cyclopropylbenzo[d]thiazol-6-yl)-1-(3-fluoro-2-methylphenyl)-N-hydroxycyclopentanecarboxamide], the half-inhibitory concentration (IC50) in experiment [1] turned out to be 0.42 µM; in experiment [2], 0.31 µM.
Taken in the same sequence, the figures for `Cc1c(F)cccc1[C@]1(C(=O)NO)CC[C@@H](c2ccc3nc(C4CC4)sc3c2)C1` (relative stereo) [Example 78, (1 S,3R*)-3-(2-cyclopropylbenzo[d]thiazol-6-yl)-1-(3-fluoro-2-methylphenyl)-N-hydroxycyclopentanecarboxamide] were 0.42 µM and 0.34 µM.
The like results for `Cc1c(F)cccc1[C@]1(C(=O)NO)CC[C@H](c2ccc3cnn(C)c3c2F)C1` (relative stereo) [Example 82, (1S,3S*)-3-(7-Fluoro-1-methyl-1H-indazol-6-yl)-1-(3-fluoro-2-methylphenyl)-N-hydroxycyclopentanecarboxamide] were, in that order, 0.25 µM and 0.11 µM.
For `Cc1c(F)cccc1[C@]1(C(=O)NO)CC[C@@H](c2ccc3cnn(C)c3c2F)C1` (relative stereo) [Example 83, (1S,3R*)-3-(7-Fluoro-1-methyl-1H-indazol-6-yl)-1-(3-fluoro-2-methylphenyl)-N-hydroxycyclopentanecarboxamide], the values for the IC50 in experiment [1] and in experiment [2] were 0.059 µM and 0.055 µM, respectively.
On to `Cc1c(F)cccc1[C@]1(C(=O)NO)CC[C@H](c2ccc3ncccc3c2)C1` (relative stereo) [Example 84, (1S,3S*)-1-(3-Fluoro-2-methylphenyl)-N-hydroxy-3-(quinolin-6-yl)cyclopentanecarboxamide], for which the IC50 in experiment [1] came to 0.18 µM; in experiment [2], 0.048 µM.
Taken in the same sequence, the figures for `Cc1c(F)cccc1[C@]1(C(=O)NO)CC[C@@H](c2ccc3ncccc3c2)C1` (relative stereo) [Example 85, (1 S,3R*)-1-(3-Fluoro-2-methylphenyl)-N-hydroxy-3-(quinolin-6-yl)cyclopentanecarboxamide] were 0.12 µM and 0.062 µM.
As for `Cc1c(F)cccc1[C@]1(C(=O)NO)CC[C@@H](N2CCOCC2)C1` (relative stereo) [Example 89, (1S,3R*)-1-(3-fluoro-2-methylphenyl)-N-hydroxy-3-morpholinocyclopentanecarboxamide], the figures for the IC50 in experiment [1] and in experiment [2] were 7.3 µM and 1.1 µM, respectively.
Turning to `Cc1c(F)cccc1[C@]1(C(=O)NO)CC[C@H](N2CCOCC2)C1` (relative stereo) [Example 90, (1S,3S*)-1-(3-Fluoro-2-methylphenyl)-N-hydroxy-3-morpholinocyclopentanecarboxamide], the IC50 in experiment [1] worked out at 24 µM; in experiment [2], 2.5 µM.
The like results for `Cc1c(F)cccc1[C@]1(C(=O)NO)CC[C@H](c2cncc(F)c2)C1` (stereo in doubt) [Example 9, (1S,3S*)-1-(3-fluoro-2-methyl-phenyl)-3-(5-fluoropyridin-3-yl)-N-hydroxycyclopentanecarboxamide] were, in that order, 1.28 µM and 0.15 µM.
Taken in the same sequence, the figures for `Cc1c(F)cccc1[C@]1(C(=O)NO)CC[C@@H](c2cncc(F)c2)C1` (stereo in doubt) [Example 10, (1S,3R*)-1-(3-fluoro-2-methyl-phenyl)-3-(5-fluoropyridin-3-yl)-N-hydroxycyclopentanecarboxamide] were 1.39 µM and 0.14 µM.
Taken in the same sequence, the figures for `Cc1c(F)cccc1[C@@]1(C(=O)NO)CC[C@H](c2cncc(F)c2)C1` (stereo in doubt) [Example 39, (1R,3S*)-1-(3-fluoro-2-methylphenyl)-3-(5-fluoropyridin-3-yl)-N-hydroxycyclopentanecarboxamide] were 8.4 µM and 0.72 µM.
Take `Cc1c(F)cccc1[C@@]1(C(=O)NO)CC[C@@H](c2cncc(F)c2)C1` (stereo in doubt) [Example 40, (1R,3R*)-1-(3-fluoro-2-methylphenyl)-3-(5-fluoropyridin-3-yl)-N-hydroxycyclopentanecarboxamide]: the IC50 is 8.4 µM in experiment [1] and 3.6 µM in experiment [2].
The like results for `Cc1c(F)cccc1C1(C(=O)NO)CCC(c2cccnc2)C1` (centres unmarked) [Example 1, 1-(3-fluoro-2-methylphenyl)-N-hydroxy-3-(pyridin-3-yl)cyclopentanecarboxamide] were, in that order, 1.23 µM and 0.19 µM.
For `O=C(NO)[C@]1(c2ccccc2)CC[C@@H](c2cncc(F)c2)CC1` [Example 13, (1 r,4r)-4-(5-fluoropyridin-3-yl)-N-hydroxy-1-phenylcyclohexanecarboxamide], the IC50 in experiment [1] stood at 48.8 µM; in experiment [2], 6.4 µM.
For the compound `O=C(NO)[C@]1(c2ccccc2)CC[C@H](c2cncc(F)c2)CC1` [Example 14, (1s,4s)-4-(5-fluoropyridin-3-yl)-N-hydroxy-1-phenylcyclohexanecarboxamide], the IC50 in experiment [1] and in experiment [2] was above 50 µM in each case.
For the compound `O=C(NO)C1(c2cccc(F)c2F)CCCC1` [Example 15, 1-(2,3-difluorophenyl)-N-hydroxycyclopentanecarboxamide], the values for the IC50 in experiment [1] and in experiment [2] were 18.5 µM and 2.5 µM, respectively.
Taken in the same sequence, the figures for `O=C(NO)C1(c2cccc3c2OCC3)CCCC1` [Example 16, 1-(2,3-dihydrobenzofuran-7-yl)-N-hydroxycyclopentanecarboxamide] were above 50 µM and above 50 µM.
Taken in the same sequence, the figures for `Cc1c(Cl)cccc1C1(C(=O)NO)CCCC1` [Example 17, 1-(3-chloro-2-methylphenyl)-N-hydroxycyclopentanecarboxamide] were 2.53 µM and 0.28 µM.
With `Cc1c(F)cccc1C1(C(=O)NO)CCCC1` [Example 18, 1-(3-fluoro-2-methylphenyl)-N-hydroxycyclopentanecarboxamide], the 50% inhibitory concentration (IC50) is 1.7 µM in experiment [1] and 0.27 µM in experiment [2].
The like results for `O=C(NO)C1(c2ccccc2F)CCCC1` [Example 19, 1-(2-fluorophenyl)-N-hydroxycyclopentanecarboxamide] were, in that order, 44.7 µM and 4.6 µM.
Taken in the same sequence, the figures for `O=C(NO)C1(c2ccc(Cl)cc2)CCCC1` [Example 20, 1-(4-chlorophenyl)-N-hydroxycyclopentanecarboxamide] were above 50 µM and 24 µM.
Regarding `O=C(NO)C1(c2ccccc2)CCCC1` [Example 21, N-Hydroxy-1-phenylcyclopentanecarboxamide], the values for the IC50 in experiment [1] and in experiment [2] were above 50 µM and 11.4 µM, respectively.
For `O=C(NO)C1(c2c(F)cccc2Cl)CCCC1` [Example 22, 1-(2-Chloro-6-fluorophenyl)-N-hydroxycyclopentanecarboxamide], the results for the IC50 in experiment [1] and in experiment [2] were 15.6 µM and 2.5 µM, respectively.
Consider `COc1ccccc1C1(C(=O)NO)CCCC1` [Example 23, N-Hydroxy-1-(2-methoxyphenyl)cyclopentanecarboxamide], for which the IC50 in experiment [1] and in experiment [2] was above 50 µM in each case.
On to `Cc1ccccc1C1(C(=O)NO)CCCC1` [Example 24, N-Hydroxy-1-o-tolylcyclopentanecarboxamide], for which the IC50 in experiment [1] was 8.12 µM; in experiment [2], 0.73 µM.
For the compound `Cc1cccc(C2(C(=O)NO)CCCC2)c1` [Example 25, N-Hydroxy-1-m-tolylcyclopentanecarboxamide], the IC50 was 43.7 µM in experiment [1] and 8.2 µM in experiment [2].
The like results for `O=C(NO)C1(c2ccccc2Cl)CCCC1` [Example 26, 1-(2-Chlorophenyl)-N-hydroxycyclopentanecarboxamide] were, in that order, 15.1 µM and 1.9 µM.
Consider `N#Cc1ccccc1C1(C(=O)NO)CCCC1` [Example 27, 1-(2-Cyanophenyl)-N-hydroxycyclopentanecarboxamide], for which the half-inhibitory concentration (IC50) in experiment [1] and in experiment [2] was above 50 µM throughout.
With `N#Cc1cccc(C2(C(=O)NO)CCCC2)c1` [Example 28, 1-(3-Cyanophenyl)-N-hydroxycyclopentanecarboxamide], the IC50 in experiment [1] and in experiment [2] was above 50 µM in each case.
For the compound `Cc1c(C2(C(=O)NO)CCCC2)ccc(F)c1F` [Example 29, 1-(3,4-Difluoro-2-methylphenyl)-N-hydroxycyclopentanecarboxamide], the IC50 in experiment [1] was determined as 1.41 µM; in experiment [2] it was 0.15 µM.
Taken in the same sequence, the figures for `Cc1c(F)cc(F)cc1C1(C(=O)NO)CCCC1` [Example 30, 1-(3,5-Difluoro-2-methylphenyl)-N-hydroxycyclopentanecarboxamide] were 2.63 µM and 0.33 µM.
Taken in the same sequence, the figures for `Cc1cccc(Cl)c1C1(C(=O)NO)CCCC1` [Example 31, 1-(2-Chloro-6-methylphenyl)-N-hydroxycyclopentanecarboxamide] were 8.1 µM and 0.91 µM.
As to `CCc1ccccc1C1(C(=O)NO)CCCC1` [Example 32, 1-(2-Ethylphenyl)-N-hydroxycyclopentanecarboxamide], the IC50 was determined as 6.5 µM in experiment [1] and 1.1 µM in experiment [2].
Taken in the same sequence, the figures for `COc1cccc(C2(C(=O)NO)CCCC2)c1C(F)(F)F` [Example 33, N-Hydroxy-1-(3-methoxy-2-(trifluoromethyl)phenyl)cyclopentanecarboxamide] were above 50 µM and above 50 µM.
In the case of `O=C(NO)C1(c2ccccc2C(F)(F)F)CCCC1` [Example 34, N-Hydroxy-1-(2-(trifluoromethyl)phenyl)cyclopentanecarboxamide], the IC50 worked out at 46 µM in experiment [1] and 11 µM in experiment [2].
The like results for `Cc1cc(F)ccc1C1(C(=O)NO)CCCC1` [Example 35, 1-(4-Fluoro-2-methylphenyl)-N-hydroxycyclopentanecarboxamide] were, in that order, 5.6 µM and 0.57 µM.
Consider `Cc1ccc(F)cc1C1(C(=O)NO)CCCC1` [Example 36, 1-(5-Fluoro-2-methylphenyl)-N-hydroxycyclopentanecarboxamide], for which the IC50 came to 7.5 µM in experiment [1] and 0.83 µM in experiment [2].
